Reference: PMC3978654, “Surface plasmon resonance using the catalytic domain of soluble guanylate cyclase allows the detection of enzyme activators^” (Bioorganic & Medicinal Chemistry Letters, 2014)

Legend:
[1] = biological target: T1, soluble guanylate cyclase α1β1 (sGC) (Homo sapiens, UniProt Q02108+Q02153); test: SPR (Biacore T200), concentration series; assay type: binding
T1 construct: gene GUCY1B1; α1β1 catalytic domain (sGCcat); with sGC α1 subunit (GUCY1A1)
T1 sequence (Q02153 408-619 limits assumed): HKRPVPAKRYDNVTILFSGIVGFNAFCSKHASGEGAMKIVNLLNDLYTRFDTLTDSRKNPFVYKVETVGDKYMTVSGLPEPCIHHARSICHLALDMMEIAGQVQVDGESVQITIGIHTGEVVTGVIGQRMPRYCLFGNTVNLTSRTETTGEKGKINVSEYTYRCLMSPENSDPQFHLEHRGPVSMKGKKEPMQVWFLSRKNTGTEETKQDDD
T1 sequence (Q02108 467-690): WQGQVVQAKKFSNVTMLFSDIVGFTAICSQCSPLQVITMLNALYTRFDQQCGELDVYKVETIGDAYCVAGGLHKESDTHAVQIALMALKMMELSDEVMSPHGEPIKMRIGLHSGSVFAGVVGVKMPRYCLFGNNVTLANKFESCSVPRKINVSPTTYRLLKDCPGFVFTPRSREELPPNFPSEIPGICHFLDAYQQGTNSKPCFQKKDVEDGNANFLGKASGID

[2] = biological target: T2, soluble guanylate cyclase α1β1 (sGC) (Homo sapiens, UniProt Q02153); test: SPR (Biacore T200) at […]; assay type: binding
T2 construct: gene GUCY1B1; full length sGC; with sGC α1 subunit (GUCY1A1)
T2 sequence (Q02153 1-619): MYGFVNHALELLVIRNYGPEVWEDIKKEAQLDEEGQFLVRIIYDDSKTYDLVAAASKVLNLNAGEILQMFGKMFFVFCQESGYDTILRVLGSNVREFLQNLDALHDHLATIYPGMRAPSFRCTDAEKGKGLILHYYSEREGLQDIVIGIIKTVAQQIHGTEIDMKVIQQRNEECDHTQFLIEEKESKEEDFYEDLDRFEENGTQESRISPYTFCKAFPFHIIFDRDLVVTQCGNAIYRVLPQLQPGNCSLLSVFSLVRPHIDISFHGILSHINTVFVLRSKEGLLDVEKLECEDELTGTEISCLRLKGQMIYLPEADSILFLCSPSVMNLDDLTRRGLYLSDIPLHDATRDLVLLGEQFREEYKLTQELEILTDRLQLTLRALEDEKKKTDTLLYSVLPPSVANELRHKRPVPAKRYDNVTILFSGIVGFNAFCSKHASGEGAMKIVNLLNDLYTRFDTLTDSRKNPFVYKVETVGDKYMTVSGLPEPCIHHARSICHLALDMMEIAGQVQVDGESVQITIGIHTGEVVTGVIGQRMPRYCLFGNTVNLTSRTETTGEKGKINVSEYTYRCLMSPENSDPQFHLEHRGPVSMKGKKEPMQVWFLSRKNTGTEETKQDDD
T2 sequence (Q02108 1-690 partner): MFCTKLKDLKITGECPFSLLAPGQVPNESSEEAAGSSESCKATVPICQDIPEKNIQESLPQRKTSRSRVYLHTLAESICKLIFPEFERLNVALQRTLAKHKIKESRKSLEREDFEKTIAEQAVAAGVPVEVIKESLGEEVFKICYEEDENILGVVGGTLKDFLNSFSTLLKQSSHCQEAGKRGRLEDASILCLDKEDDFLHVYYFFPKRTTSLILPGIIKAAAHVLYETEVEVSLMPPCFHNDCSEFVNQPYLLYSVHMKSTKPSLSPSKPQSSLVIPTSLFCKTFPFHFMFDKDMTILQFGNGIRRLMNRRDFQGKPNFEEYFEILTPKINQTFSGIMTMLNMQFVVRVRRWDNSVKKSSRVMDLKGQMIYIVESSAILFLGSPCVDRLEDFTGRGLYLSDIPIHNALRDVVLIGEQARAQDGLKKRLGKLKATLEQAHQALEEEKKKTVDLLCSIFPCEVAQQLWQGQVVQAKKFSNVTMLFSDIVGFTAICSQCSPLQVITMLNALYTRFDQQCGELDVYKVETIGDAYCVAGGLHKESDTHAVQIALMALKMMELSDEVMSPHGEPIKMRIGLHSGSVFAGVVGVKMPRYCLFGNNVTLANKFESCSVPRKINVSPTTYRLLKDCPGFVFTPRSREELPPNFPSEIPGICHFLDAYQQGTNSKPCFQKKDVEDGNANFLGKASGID

| Structure (SMILES) | Kd [1] | SPR (Biacore T200) at 100 μM [2] |
| --- | --- | --- |
| Nc1nc2c(ncn2[C@@H]2O[C@H](COP(=O)(O)OP(=O)(O)OP(=O)(O)O)[C@@H](O)[C@H]2O)c(=O)[nH]1 [GTP] | 326 µM | – |
| O=C(O)CCCCN(CCc1ccccc1OCc1ccc(CCc2ccccc2)cc1)Cc1ccc(C(=O)O)cc1 [compound 1, BAY 58-2667] | – | showed strong binding to the full length sGC and only non-specific binding to sGCcat |
